Read-outs that look alike come from different tables or passages of the source.
What was measured:
[1] = target: recombinant HIV-1 IN (integrase strand transfer) (Human immunodeficiency virus type 1 group M subtype B, UniProt P04585); assay: INST biochemical assay
[2] = test system: HIV-1 IIIB in CEM-SS cells; assay: microbe, parasite or virus in culture; format: cell-based; settings: for Antiviral Screening (10 μM) CPE reduction %: HIV-1 IIIB in CEM-SS cells, versus viral control
CEM-SS cells = assay: Cell viability / cytotoxicity in cytoprotection assay; format: cell-based
[3] = as above; format: cell-based; settings: human
[4] = read-out: INST IC50, mean ± SD, at least three independent experiments

For `CCNc1[nH]c(=O)n(O)c(=O)c1C(=O)Oc1ccccc1` [Compound 51, Phenyl-1-(hydroxy)-4-(ethylamino)-1,2,3,6-tetrahydro-2,6-dioxopyrimidine-5-carboxylate], the IC50 [1] was > 100 µM.

For “1-(Hydroxy)-1,2,3,6-tetrahydro-2,6-dioxo-4-(phenylamino)pyrimidine-5-carboxamide [Compound 49]”, the IC50 [1, 4] was > 100 µM.

With “3-(Benzyloxy)-6-(ethylamino)-N-(4-fluorobenzyl)-N-methyl-2,4-dioxo-1,2,3,4-tetrahydropyrimidine-5-carboxamide [Compound 53]” the “Antiviral Screening (10 μM) CPE reduction %” value [2] was 0%, the “Antiviral Screening (10 μM) viability %” value (CEM-SS cells; 10 µM) was 89% and the IC50 [1, 4] was 7 ± 3.3 µM.

Work on `O=C(NCc1ccccc1)c1c(O)n(O)c(=O)[nH]c1=O` [Compound 54, N-Benzyl-1,6-dihydroxy-2,4-dioxo-1,2,3,4-tetrahydropyrimidine-5-carboxamide] yielded an inhibition at 10 µM ([2]; Human immunodeficiency virus 1, IIIB, CEM-SS, 144 h, read-out: Antiviral Screening (10 μM) CPE reduction %) of 26% and a viability at 6 days, 10 µM [3] of 100%.

With `CCNc1c(C(=O)NCc2ccc(F)cc2)c(=O)n(O)c(=O)n1C` [Compound 52, N-(4-Fluorobenzyl)-3-(hydroxy)-6-(ethylamino)-1,2,3,4-tetrahydro-1-methyl-2,4-dioxopyrimidine-5-carboxamide] the IC50 [1] was > 100 µM.

In the case of `CCNc1[nH]c(=O)n(O)c(=O)c1C(=O)NCc1ccc(Cl)c(F)c1` [Compound 44, N-(4-Chloro-3-fluorobenzyl)-1-(hydroxy)-4-(ethylamino)-1,2,3,6-tetrahydro-2,6-dioxopyrimidine-5-carboxamide], the “TI (therapeutic index, CC50/EC50)” value ([2]; cytoprotection assay, CEM-SS cells) is reported as 100.

For `CCNc1[nH]c(=O)n(O)c(=O)c1C(=O)NCCCl` [Compound 50, 1-(Hydroxy)-N-(2-chloroethyl)-4-(ethylamino)-1,2,3,6-tetrahydro-2,6-dioxopyrimidine-5-carboxamide], the IC50 [1] was > 100 µM.

With `CCNc1[nH]c(=O)n(O)c(=O)c1C(=O)NCc1ccc(F)c(F)c1` [Compound 42, N-(3,4-difluorobenzyl)-1-(hydroxy)-4-(ethylamino)-1,2,3,6-tetrahydro-2,6-dioxopyrimidine-5-carboxamide] the “Antiviral Screening (10 μM) CPE reduction %” value [2] was “inactive” and the “Antiviral Screening (10 μM) viability %” value (CEM-SS cells; 10 μM, CEM-SS cells, versus cell control) was “cytotoxic”.

For `O=C(NCc1ccccc1)c1c(Nc2ccc(-c3ccccc3)cc2)[nH]c(=O)n(O)c1=O` [Compound 25, N-Benzyl-1-(hydroxy)-1,2,3,6-tetrahydro-2,6-dioxo-4-(biphenylamino)pyrimidine-5-carboxamide], the IC50 [1] was > 100 µM.

For `O=C(NCc1ccccc1)c1c(Nc2ccccc2)[nH]c(=O)n(O)c1=O` [Compound 24, N-Benzyl-1-(hydroxy)-1,2,3,6-tetrahydro-2,6-dioxo-4-(phenylamino)pyrimidine-5-carboxamide], the IC50 [1] was > 100 µM.

— paper PMC4945466 (Journal of medicinal chemistry, 2016)
